Test results reported in paper PMC4921858, “Structural and functional characterization of the CAP domain of pathogen-related yeast 1 (Pry1) protein” (Scientific Reports, 2016).

Assays:
[1] = target: T1, Pathogen-related yeast 1 (Pry1), CAP domain (Pry1CAP) (Saccharomyces cerevisiae, UniProt P47032); experiment: [3H]-cholesterol saturation radioligand binding with purified protein
T1 construct: C-terminal CAP domain, Ser151 through Ala296 (Pry1CAP)
T1 sequence (P47032 151-296): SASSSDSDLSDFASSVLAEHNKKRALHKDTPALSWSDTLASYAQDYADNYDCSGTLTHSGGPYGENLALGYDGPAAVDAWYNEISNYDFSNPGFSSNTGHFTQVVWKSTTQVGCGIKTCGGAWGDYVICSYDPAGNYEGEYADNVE

[2] = target: CAP domain of pathogen-related yeast protein-1 (Pry1) from Saccharomyces cerevisiae (Saccharomyces cerevisiae); experiment: SEC; 20 μg Pry1CAP injected on a Yarra SEC-2000 column, 0.5 ml/min, PBS pH 7.4 as mobile phase, calibrated with Bio-Rad gel filtration standards, in triplicate

Compound `CC(C)CCC[C@@H](C)[C@H]1CC[C@H]2[C@@H]3CC=C4C[C@@H](O)CC[C@]4(C)[C@H]3CC[C@]12C` [cholesterol] has a Kd [1] of 2080 ± 70 nM.

Work on “CAP domain of pathogen-related yeast protein-1 (Pry1) from Saccharomyces cerevisiae (domain or fragment)” yielded a stoichiometry N [2] of 2.
